SMILES strings stand for the structures.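 Results reflect a 48-hour exposure of cells in 96-well plates to compound at five concentrations. GI50: concentration for 50% inhibition of growth.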 Active and inactive are the calls of the source. Cut-off read from the data, not from the text of the source: active = GI50 up to about 1.1 µM and inactive = higher. A value given as a limit tells only on which side of the number the result lay.

Test systems include COLO 205; EKVX; HCT-116; HOP-92; IGROV-1; M14; NCI-H522; NCI/ADR-RES; OVCAR-8; RPMI-8226; RXF 393; SF-539; SK-MEL-28; SK-OV-3; SN12C; UACC-62; UO-31; MOLT-4; SF-268.
What all share (assay): DTP human tumour cell line panel, 48 h

As for `C[C@]12CC[C@H]3[C@@H](CC=C4C[C@@H](O)CC[C@@]43C)[C@@H]1C/C(=C\c1cccnc1)[C@@H]2O`, the GI50 is > 100 µM (inactive) with COLO 205; 3.97 µM (inactive) in the assay with EKVX; 25 µM (inactive) in the assay on HCT-116; 11.9 µM (inactive) in the assay on HOP-92; 24.7 µM (inactive) in the assay on IGROV-1; > 100 µM (inactive) in the assay with M14. In addition, the GI50 in the assay on NCI-H522 was 12.6 µM (inactive); with NCI/ADR-RES, 11.8 µM (inactive); in the assay with OVCAR-8, 6.89 µM (inactive); in the assay with RPMI-8226, > 100 µM (inactive); in the assay on RXF 393, 15 µM (inactive); in the assay on SF-539 it was 14 µM (inactive). In addition, the GI50 was 32.1 µM (inactive) in the assay with SK-MEL-28; 10.8 µM (inactive) in the assay with SK-OV-3; 9.44 µM (inactive) in the assay with SN12C; 7.96 µM (inactive) in the assay on UACC-62; 55.5 µM (inactive) in the assay with UO-31.
`CCc1n[nH]c(=O)n1/N=C/c1ccccc1O`: the GI50 was > 100 µM (inactive) in the assay on COLO 205; > 100 µM (inactive) with EKVX; > 100 µM (inactive) in the assay with HCT-116; > 100 µM (inactive) with HOP-92; 64.9 µM (inactive) with IGROV-1; > 100 µM (inactive) with M14. In addition, the GI50 with MOLT-4, in the assay with NCI-H522, with NCI/ADR-RES, with OVCAR-8, in the assay with RPMI-8226 and with RXF 393 was > 100 µM (inactive) throughout. Besides, the GI50 in the assay with SF-268, with SF-539, in the assay with SK-MEL-28, in the assay on SK-OV-3, with SN12C and with UACC-62 was > 100 µM (inactive) throughout. Moreover, the GI50 with UO-31 is > 100 µM (inactive).
Turning to `C[C@H](CCCOS(C)(=O)=O)[C@H]1CC[C@H]2[C@@H]3CC[C@@H]4C[C@H](OS(C)(=O)=O)CC[C@]4(C)[C@H]3CC[C@]12C`, the GI50 in the assay on COLO 205 is > 100 µM (inactive); in the assay with EKVX it was 28.2 µM (inactive); with HCT-116 it was 29.5 µM (inactive); in the assay on HOP-92 it was 0.118 µM (active); with IGROV-1 it was 30.1 µM (inactive); with M14, 90.4 µM (inactive). The GI50 in the assay on MOLT-4 was > 100 µM (inactive); in the assay with NCI-H522, 29.7 µM (inactive); with NCI/ADR-RES, 26.7 µM (inactive); in the assay on OVCAR-8 it was 14.5 µM (inactive); in the assay on RPMI-8226, 17.1 µM (inactive); with RXF 393 it was 52 µM (inactive). In addition, the GI50 in the assay with SF-268 was 27 µM (inactive); with SF-539, 21 µM (inactive); in the assay with SK-MEL-28, > 100 µM (inactive); with SK-OV-3 it was 20.3 µM (inactive); in the assay on SN12C it was 16.7 µM (inactive); in the assay on UACC-62, 22.8 µM (inactive). Moreover, the GI50 with UO-31 was 34 µM (inactive).
In the case of `Cc1ccc(/N=N/c2c(O)ccc3ccccc23)cc1`, the GI50 with COLO 205, in the assay with EKVX, with HCT-116, in the assay with HOP-92, in the assay with IGROV-1 and with M14 was > 100 µM (inactive) each time. The GI50 is 46.8 µM (inactive) in the assay with MOLT-4; > 100 µM (inactive) in the assay with NCI-H522; > 100 µM (inactive) in the assay with NCI/ADR-RES; > 100 µM (inactive) with OVCAR-8; 99.3 µM (inactive) in the assay on RPMI-8226; > 100 µM (inactive) in the assay with RXF 393. In addition, the GI50 in the assay on SF-268, in the assay with SK-MEL-28, in the assay with SK-OV-3, with SN12C, in the assay with UACC-62 and in the assay on UO-31 was > 100 µM (inactive) throughout.

The values above are taken from ChEMBL document CHEMBL1201862, “PubChem BioAssay data set” (2004).
